Reference: US20250304537A1 (Repare Therapeutics Inc., priority 2022, published 2025)
Read-outs that look alike come from different tables or passages of the source.

How the values were obtained:
[1] = system: PKMYT1 (CDK1 pThr14) in FUOV1 cells; test: PKMYT1 cell-based activity assay, CDK1 pThr14 AlphaLISA in FUOV1 cells; conditions: read-out: FUOV-1 CDK1 pThr14 IC50
Summary of the method: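 IC50 was derived from AlphaLISA signal (excitation 680 nm, emission 615 nm) for phospho-Thr14 CDK1 in lysates. The detection antibodies were rabbit anti-pThr14 and mouse anti-total CDK1, each at 5 nM. FUOV1 ovarian cells were exposed to compound for 2 hours before lysis.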

[2] = target: recombinant human Myt1 (full length PKMYT1) (Homo sapiens (Human), UniProt Q99640); test: Recombinant human Myt1 kinase assay (ADP-Glo); type: biochemical; conditions: 10 μM ATP
Sequence of recombinant human Myt1 (full length PKMYT1) (Q99640 whole entry): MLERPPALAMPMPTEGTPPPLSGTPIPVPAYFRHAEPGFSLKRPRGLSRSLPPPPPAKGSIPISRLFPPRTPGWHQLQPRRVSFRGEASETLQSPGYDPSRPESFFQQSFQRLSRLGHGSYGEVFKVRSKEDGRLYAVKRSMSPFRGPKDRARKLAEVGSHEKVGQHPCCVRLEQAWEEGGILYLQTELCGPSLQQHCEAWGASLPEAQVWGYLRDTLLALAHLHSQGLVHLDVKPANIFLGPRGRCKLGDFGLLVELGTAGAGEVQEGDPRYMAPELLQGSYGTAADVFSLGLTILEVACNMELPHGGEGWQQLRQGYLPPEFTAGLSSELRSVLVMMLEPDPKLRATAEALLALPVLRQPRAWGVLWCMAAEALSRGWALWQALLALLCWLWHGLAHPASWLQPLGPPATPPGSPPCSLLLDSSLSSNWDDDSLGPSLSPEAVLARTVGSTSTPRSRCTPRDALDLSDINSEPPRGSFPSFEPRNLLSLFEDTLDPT
Summary of the method: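 ADP-Glo luminescence measured ATP hydrolysis by recombinant full-length PKMYT1 (18 nM) after 60 min at 30 °C with 10 μM ATP. Compounds in 0.5% DMSO were added to the enzyme 15 min before ATP, at 22 °C, in HEPES/MgCl2/MnCl2 buffer. IC50 and percent maximal inhibition were derived.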

**Q.** How did the IC50 ([1]; 2 h, 2 h incubation) turn out when Cc1ccc2[nH]ncc2c1-c1nc(-c2cccc(OCC#N)c2)nc(C(N)=O)c1N [Compound 288] was run?
**A.** The IC50 was 652 nM.

**Q.** And the IC50 [2]?
**A.** Its IC50 is 8 nM.

**Q.** With Cc1ccc2[nH]ncc2c1-c1cc(-c2cccc(OCc3cccnn3)n2)nc(C(N)=O)c1N [Compound 242] as the compound, how does the IC50 ([1]; 2 h, 2 h incubation) read?
**A.** Its IC50 is 243 nM.

**Q.** And the IC50 [2]?
**A.** The IC50 was 7 nM.

**Q.** Cc1ccc2[nH]ncc2c1-c1cc(-c2cccc(OCc3cncnc3)n2)nc(C(N)=O)c1N [Compound 262] was tested. Which IC50 ([1]; 2 h, 2 h incubation) did it give?
**A.** The IC50 was 507 nM.

**Q.** And the IC50 [2]?
**A.** The IC50 was 7 nM.

**Q.** With Cc1ccc2[nH]ncc2c1-c1cc(-c2cccc(OCC3(N)CC3)n2)nc(C(N)=O)c1N [Compound 353] as the compound, how does the IC50 ([1]; 2 h, 2 h incubation) read?
**A.** Its IC50 is 20 nM.

**Q.** What about the IC50 [2] of the same compound?
**A.** Its IC50 is 7 nM.

**Q.** What does the source list for Cc1ccc2[nH]ncc2c1-c1cc(-c2ccnc(N3CCOCC3)n2)nc(C(N)=O)c1N [Compound 198]?
**A.** IC50 ([1]; 2 h, 2 h incubation): 970 nM; IC50 [2]: 9 nM

**Q.** For CNc1ccccc1-c1nc(C(N)=O)c(N)c(-c2c(C)ccc3[nH]ncc23)n1 [Compound 365], which IC50 ([1]; 2 h, 2 h incubation) is on record?
**A.** Its IC50 is 774 nM.

**Q.** And the IC50 [2]?
**A.** The IC50 was 28 nM.

**Q.** Which results are given for Cc1ccc2[nH]ncc2c1-c1cc(-c2cccc(OCc3cscn3)n2)nc(C(N)=O)c1N [Compound 278]?
**A.** IC50 ([1]; 2 h, 2 h incubation): 158 nM; IC50 [2]: 5 nM

**Q.** Which results are given for Cc1cncnc1Nc1cc(F)ccc1-c1nc(C(N)=O)c(N)c(-c2c(C)ccc3[nH]ncc23)n1 [Compound 617]?
**A.** IC50 ([1]; 2 h, 2 h compound incubation): 7 nM; IC50 [2]: 4 nM

**Q.** Cc1ccc2[nH]ncc2c1-c1cc2c(oc3cccnc32)c(C(N)=O)c1N [Compound 458, 7-amino-8-(5-methyl-1H-indazol-4-yl)benzofuro[3,2-b]pyridine-6-carboxamide] was tested. Which IC50 ([1]; 2 h, 2 h compound incubation) did it give?
**A.** Its IC50 is 142 nM.

**Q.** What about the IC50 [2] of the same compound?
**A.** Its IC50 is 2 nM.

**Q.** What does the source list for Cc1ccc2[nH]ncc2c1-c1cc(-c2cccc(OC3(c4ncccn4)COC3)n2)nc(C(N)=O)c1N [Compound 256]?
**A.** IC50 ([1]; 2 h, 2 h incubation): 132 nM; IC50 [2]: 21 nM

**Q.** What does the source list for COc1ccc(-c2nc(C(N)=O)c(N)c(-c3c(C)ccc4[nH]ncc34)n2)c(NC(=O)C2(C)CC2)c1 [Compound 455]?
**A.** IC50 ([1]; 2 h, 2 h compound incubation): 21 nM; IC50 [2]: 6 nM

**Q.** How did the IC50 ([1]; 2 h, 2 h incubation) turn out when Cc1ccc2[nH]ncc2c1-c1nc(-c2cccc3cn[nH]c23)nc(C(N)=O)c1N [Compound 323] was run?
**A.** Its IC50 is 108 nM.

**Q.** And the IC50 [2]?
**A.** The IC50 was 6 nM.

**Q.** How did the IC50 ([1]; 2 h, 2 h compound incubation) turn out when Cc1ccc2[nH]ncc2c1-c1nc(-c2ccccc2NC(=O)C2(C)CC2(F)F)nc(C(N)=O)c1N (stereo not drawn) [Compound 443] was run?
**A.** Its IC50 is 26 nM.

**Q.** And the IC50 [2]?
**A.** The IC50 was 3 nM.

**Q.** With Cc1ccc2[nH]ncc2c1-c1nc(-c2ccccc2NC(=O)C23CC(F)(C2)C3)nc(C(N)=O)c1N [Compound 448] as the compound, how does the IC50 ([1]; 2 h, 2 h compound incubation) read?
**A.** The IC50 was 112 nM.

**Q.** What about the IC50 [2] of the same compound?
**A.** Its IC50 is 7 nM.

**Q.** With Cc1ccc2[nH]ncc2c1-c1nc(-c2ccccc2NC(=O)C2CC(C)(C)C2)nc(C(N)=O)c1N [Compound 417] as the compound, how does the IC50 ([1]; 2 h, 2 h compound incubation) read?
**A.** The IC50 was 899 nM.

**Q.** What about the IC50 [2] of the same compound?
**A.** The IC50 was 18 nM.

**Q.** For Cc1ccc(O)c(C)c1-c1cc(-c2ccccn2)nc(C(N)=O)c1N [Compound 19], which IC50 ([1]; 2 h, 2 h incubation) is on record?
**A.** Its IC50 is 14 nM.

**Q.** And the IC50 [2]?
**A.** Its IC50 is 4 nM.

**Q.** For Cc1ccc2[nH]ncc2c1-c1cc(-c2ccnnc2)nc(C(N)=O)c1N [Compound 86], which IC50 ([1]; 2 h incubation) is on record?
**A.** The IC50 was 945 nM.

**Q.** And the IC50 [2]?
**A.** Its IC50 is 58 nM.

**Q.** Which IC50 ([1]; 2 h, 2 h compound incubation) does the source give for Cc1ccc2[nH]ncc2c1-c1nc(-c2cccc3c2NC(=O)C32CC2)nc(C(N)=O)c1N [Compound 399] here?
**A.** The IC50 was 143 nM.

**Q.** And the IC50 [2]?
**A.** Its IC50 is 17 nM.

**Q.** Cc1ccc2[nH]ncc2c1-c1nc(-c2cccnc2NCC(F)F)nc(C(N)=O)c1N [Compound 625] was tested. Which IC50 ([1]; 2 h, 2 h compound incubation) did it give?
**A.** The IC50 was 42 nM.

**Q.** What about the IC50 [2] of the same compound?
**A.** Its IC50 is 5 nM.

**Q.** Cc1ccc2[nH]ncc2c1-c1cc(-c2ccnc(OCc3ncccn3)n2)nc(C(N)=O)c1N [Compound 235] was tested. Which IC50 ([1]; 2 h, 2 h incubation) did it give?
**A.** Its IC50 is 39 nM.

**Q.** And the IC50 [2]?
**A.** Its IC50 is 7 nM.

**Q.** What does the source list for Cc1ccc2[nH]ncc2c1-c1cc(-c2ccnnc2)nc(C(N)=O)c1N [Compound 95]?
**A.** IC50 ([1]; 2 h, 2 h incubation): 1700 nM; IC50 [2]: 16 nM

**Q.** For NC(=O)c1nc(-c2cc(F)c(F)cc2NCC(F)F)nc(-c2c(Cl)ccc3[nH]ncc23)c1N [Compound 468], which IC50 ([1]; 2 h, 2 h compound incubation) is on record?
**A.** The IC50 was 228 nM.

**Q.** And the IC50 [2]?
**A.** Its IC50 is 6 nM.

**Q.** For Cc1ccc2[nH]ncc2c1-c1nc(-c2ccccc2NC(C)C)nc(C(N)=O)c1N [Compound 419], which IC50 ([1]; 2 h, 2 h compound incubation) is on record?
**A.** The IC50 was 49 nM.

**Q.** What about the IC50 [2] of the same compound?
**A.** Its IC50 is 4 nM.

**Q.** How did the IC50 ([1]; 2 h, 2 h compound incubation) turn out when Cc1ccc2[nH]ncc2c1-c1nc(-c2cccnc2N[C@@H]2CCO[C@H](C)C2)nc(C(N)=O)c1N [Compound 603] was run?
**A.** Its IC50 is 25 nM.

**Q.** What about the IC50 [2] of the same compound?
**A.** Its IC50 is 4 nM.

**Q.** How did the IC50 ([1]; 2 h, 2 h incubation) turn out when Cc1ccc(-c2cc(-c3c(C)ccc(O)c3C)c(N)c(C(N)=O)n2)nc1 [Compound 40] was run?
**A.** Its IC50 is 208 nM.

**Q.** What about the IC50 [2] of the same compound?
**A.** The IC50 was 4 nM.

**Q.** Which IC50 ([1]; 2 h, 2 h incubation) does the source give for COc1ccc(-c2cc(-c3c(C)ccc(O)c3C)c(N)c(C(N)=O)n2)nc1 [Compound 59] here?
**A.** The IC50 was 59 nM.

**Q.** And the IC50 [2]?
**A.** Its IC50 is 4 nM.

**Q.** With Cc1ccc2[nH]ncc2c1-c1nc(-c2cc(F)ncc2NC2CCOCC2)nc(C(N)=O)c1N [Compound 843] as the compound, how does the IC50 ([1]; 2 h, 2 hours with compound) read?
**A.** Its IC50 is 22 nM.

**Q.** And the IC50 [2]?
**A.** Its IC50 is 3 nM.

**Q.** Which results are given for Cc1ccc(O)c(C)c1-c1cc(-c2ccncn2)nc(C(N)=O)c1N [Compound 89]?
**A.** IC50 ([1]; 2 h incubation): 16 nM; IC50 [2]: 3 nM

**Q.** With Cc1ccc(O)c(C)c1-c1cc(-c2nccs2)cc(C(N)=O)c1N [Compound 81] as the compound, how does the IC50 ([1]; 2 h, 2 h incubation) read?
**A.** The IC50 was 112 nM.

**Q.** And the IC50 [2]?
**A.** The IC50 was 5 nM.

**Q.** Which IC50 ([1]; 2 h, 2 h incubation) does the source give for Cc1ccc2[nH]ncc2c1-c1cc(-c2ccnc(OCCc3ccccn3)n2)nc(C(N)=O)c1N [Compound 239] here?
**A.** The IC50 was 903 nM.

**Q.** And the IC50 [2]?
**A.** The IC50 was 4 nM.
